Assay results from patent US20080057531A1, “SYSTEMS, KITS, AND METHODS FOR DETECTING CARIOGENIC BACTERIA AND ASSESSING RISK OF DENTAL CARIES” (Oregon Health and Science University, priority 2006, published 2008).
Where a SMILES comes first, the peptide text is derived from it. Bridges are numbered along the chain shown (N, C = ends). [ ]: non-standard residue; d: D form. The star is where a group is joined. Ileψ(thiazoline)Cys = CC[C@H](C)[C@H](N)C1=N[C@H](C(=O)*)CS1; dOrn = NCCC[C@@H](N)C(=O)O

What was measured:
S. mutans in saliva = assay: bacitracin selection for S. mutans in pediatric saliva samples incubated in BHI media; assay type: cell-based, Streptococcus mutans; conditions: four hours of bacitracin treatment, 7% at time 0, FIG. 5
From the text: FIG. 5 illustrates the bacitracin-based selection for the highly cariogenic S. mutans species in the presence of non-mutans streptococci.
This example describes a clinical study, examining the application of bacitracin selection (and sucrose growth accelerant) on oral micro-organisms found in dental plaque and saliva. This study examines up to 50 patients, with 3-4 plaque specimens and one saliva specimen per patient, and assesses the correlation between ATP content (measured by CariScreen meter and Veritas luminometer), wet weight of plaque specimens, total protein measurement, and viable bacterial numbers (total bacteria, total oral streptococci, Streptococcus mutans, and total lactobacilli as assessed with the use of plating on blood agar, mitis-salivarius agar, mitis-salivarius agar supplemented with bacitracin ([…] w/v), and Rogasa agar, respectively). […] With continued reference to FIG. 5, with four hours of bacitracin treatment the percentage of S. mutans in saliva went from 7% at time 0 to 75%. With reference to FIG. 6, a subject's saliva was added to BHI media±bacitracin (0.5 units/ml), and then incubated at 37° C. in a 5% carbon dioxide atmosphere. At times 0, 1, 2, and 4 hours samples were measured for ATP-driven bioluminescence and plated onto blood agar plates to measure total bacteria numbers. […]

[1] = system: non-cariogenic streptococci, such as S. sanguis; assay: bacitracin selection in suspended solution format, growth measured by ATP luminescence; assay type: cell-based, Streptococcus sanguis; conditions: 0.5-1.0 U/ml bacitracin in BHI medium, FIG. 3
From the text: (§1) FIG. 3 illustrates the relationship between bacitracin concentration and effect on growth of several oral streptococci species as measured by ATP luminescence.
(§2) With reference to FIG. 1, the linear portion of the curves in each graph illustrates a range of measurements that can be used to accurately correlate ATP concentration and relative light units. FIG. 2 illustrates that the relationship of ATP content and viable cell number is linear during exponential phase of growth. However, ATP content becomes diminished during transition from exponential phase to […] of growth. […] Cultures tested include Streptococcus mutans ATCC 700610, Streptococcus mutans A TCC 25175, Streptococcus sanguis and Streptococcus sobrinus. Overnight cultures were prepared using BHI medium and then inoculum was transferred to fresh BHI medium in the presence (0.5 U/ml-10 U/ml) or absence of bacitracin. […] Thus, the presence of sucrose may represent a further improvement of the current CariScreen device, by 1) extending the effectiveness of bacitracin selection and by 2) increasing the likelihood or allowing all oral microorganisms to remain in an exponential phase of growth, which based on FIG. 2, represents an accurate determinant of bacterial number as measured by ATP.

cariogenic S. mutans = assay: as above; assay type: cell-based, Streptococcus mutans; conditions: 0.5-1.0 U/ml bacitracin in BHI medium, FIG. 3
From the text: as §1, §2

S. sobrinus = assay: as above; assay type: cell-based, Streptococcus sobrinus; conditions: 0.5-1.0 U/ml bacitracin in BHI medium, FIG. 3
From the text: as §1, §2

S. mutans = assay: sucrose effect on adherence of bacteria in a biofilm on the culture vessel; assay type: cell-based, Streptococcus mutans; conditions: sucrose especially at 0.5-1%, FIG. 4
From the text: (§3) FIG. 4 illustrates the effect of sucrose as a potential accelerant of growth of four different oral streptococci, increase of four different streptococci strains, including measurement of adherent bacteria, in response to varying sucrose concentrations.
as §2

[2] = system: oral streptococci, including cariogenic S. mutans and non-cariogenic S. salivarius and S. sanguis; assay: sucrose as accelerant of growth of oral streptococci, suspended bacteria; assay type: cell-based; conditions: varying sucrose concentrations, FIG. 4
From the text: as §3, §2

SMILES | percentage of S. mutans in saliva (S. mutans in saliva) [%] | effect on growth [1] | effect on growth (cariogenic S. mutans) | effect on growth (S. sobrinus) | effect on adherence in a biofilm coating the plastic surface of the culture vessel (S. mutans) | effect on growth phase and yield [2]
CC[C@H](C)[C@H](N)C1=N[C@H](C(=O)N[C@@H](CC(C)C)C(=O)N[C@H](CCC(=O)O)C(=O)N[C@H](C(=O)N[C@H]2CCCCNC(=O)[C@H](CC(N)=O)NC(=O)[C@@H](CC(=O)O)NC(=O)[C@H](Cc3cnc[nH]3)NC(=O)[C@@H](Cc3ccccc3)NC(=O)[C@H]([C@@H](C)CC)NC(=O)[C@@H](CCCN)NC2=O)[C@@H](C)CC)CS1 [bacitracin] ({Ileψ(thiazoline)Cys}-L[dE]IK[dOrn]I[dF]H[dD]N; lactam 4-C) | 75 | greatly inhibit | allows considerable break-through of growth | allows considerable break-through of growth |  | 
OC[C@H]1O[C@@](CO)(O[C@H]2O[C@H](CO)[C@@H](O)[C@H](O)[C@H]2O)[C@@H](O)[C@@H]1O [sucrose] |  |  |  |  | promote the increased adherance | extend the exponential phase of growth and promote increased yields at saturation
